Measurements as given in patent US8362204B2 (priority 2006, dated 2013).
“And” between values parts separate entries of the source, which are not always exact repeats. Equal values may be shown once. Positions of bridges follow the written chain, without caps; N, C: chain ends. Non-standard residues stand in square brackets, D forms with d. Residues, ends and D or L forms follow the SMILES beside them. ξ: configuration not given here. Ala(indol-2-yl) = N[C@@H](Cc1cc2ccccc2[nH]1)C(=O)O; AllylGly = C=CC[C@H](N)C(=O)O; ξP = O=C(O)C1CCCN1

Experiments:
[1] = target: T1, neuronal-type nicotinic receptors (Bos taurus, UniProt Q07263+Q8SPU6); conditions: cited from earlier work
T1 construct: monolayer cultures of bovine adrenal chromaffin cells; endogenous in cells; host or cells: bovine adrenal chromaffin cells (primary monolayer cultures)

[2] = target: T1, neuronal-type nicotinic receptors; format: cell-based, Bovine

T1 sequence (Q07263 22-495): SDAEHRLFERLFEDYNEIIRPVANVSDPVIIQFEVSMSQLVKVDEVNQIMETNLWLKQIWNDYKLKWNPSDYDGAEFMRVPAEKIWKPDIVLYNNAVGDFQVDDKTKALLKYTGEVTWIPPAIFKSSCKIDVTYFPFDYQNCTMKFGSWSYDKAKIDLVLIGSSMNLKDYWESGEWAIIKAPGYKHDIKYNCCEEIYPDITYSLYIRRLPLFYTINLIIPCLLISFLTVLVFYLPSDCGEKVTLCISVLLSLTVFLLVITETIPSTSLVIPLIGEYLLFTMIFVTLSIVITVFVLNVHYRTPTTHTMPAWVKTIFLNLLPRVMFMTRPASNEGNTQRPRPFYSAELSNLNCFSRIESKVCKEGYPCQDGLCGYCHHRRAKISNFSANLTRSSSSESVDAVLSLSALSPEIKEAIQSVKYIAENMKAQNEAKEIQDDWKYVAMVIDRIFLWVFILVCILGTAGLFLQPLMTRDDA
T1 sequence (Q8SPU6 20-496): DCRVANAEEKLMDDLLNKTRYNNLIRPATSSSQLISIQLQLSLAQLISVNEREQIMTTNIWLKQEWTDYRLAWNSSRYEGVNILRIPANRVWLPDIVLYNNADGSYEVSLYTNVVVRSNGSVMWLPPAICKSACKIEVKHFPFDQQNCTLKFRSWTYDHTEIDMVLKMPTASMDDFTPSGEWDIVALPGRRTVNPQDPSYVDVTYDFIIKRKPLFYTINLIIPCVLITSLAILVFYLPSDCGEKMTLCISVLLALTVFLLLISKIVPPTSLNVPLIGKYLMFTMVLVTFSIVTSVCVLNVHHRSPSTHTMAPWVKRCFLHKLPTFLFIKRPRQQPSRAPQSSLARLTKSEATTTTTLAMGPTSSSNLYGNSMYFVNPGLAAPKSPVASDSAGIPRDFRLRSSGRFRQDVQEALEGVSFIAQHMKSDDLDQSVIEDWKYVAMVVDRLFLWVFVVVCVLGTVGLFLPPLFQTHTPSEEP

Structure (SMILES): C[C@@H]1NC(=O)[C@@H]2CSSC[C@H](NC(=O)CN)C(=O)N[C@@H](CSSC[C@@H](C(N)=O)NC(=O)[C@H](CCCNC(=N)N)NC(=O)[C@H](Cc3cc4ccccc4[nH]3)NC1=O)C(=O)N[C@@H](CO)C(=O)N[C@@H](CC(=O)O)C(=O)N1CCCC1C(=O)N[C@@H](CCCNC(=N)N)C(=O)N2 (stereo partly drawn) [native-Ctx ImI] (H-GCCSD[ξP]RCA[Ala(indol-2-yl)]RC-NH2; disulfide 2-8, 3-12)
- effect on nicotine-stimulated release of adrenaline and noradrenaline [1]: inhibit

Structure (SMILES): C[C@@H]1NC(=O)[C@@H]2CCCC[C@H](NC(=O)CN)C(=O)N[C@@H](CSSC[C@@H](C(N)=O)NC(=O)[C@H](CCCNC(=N)N)NC(=O)[C@H](Cc3cc4ccccc4[nH]3)NC1=O)C(=O)N[C@@H](CO)C(=O)N[C@@H](CC(=O)O)C(=O)N1CCCC1C(=O)N[C@@H](CCCNC(=N)N)C(=O)N2 (stereo partly drawn) [compound 118, [2,8]-Dicarba-[3,12]-Cystino Conotoxin ImI: NH2-Gly-c[Hag-Cys-Ser-Asp-Pro-Arg-Hag]-Ala-Trp-Arg-Cys)-NH2]
- Adrenaline Release, 1st-4th (individual wells) [2]: 2.94% and 4.40% and 4.46% and 4.09% and 2.55% and 3.63% and 2.62% and 3.31%
- Adrenaline Release, % control [2]: 88.260% and 65.306%
- Adrenaline Release, mean [2]: 3.97% and 3.03%
- Noradrenaline Release, 1st-4th (individual wells) [2]: 4.52% and 6.29% and 7.00% and 7.34% and 4.19% and 5.86% and 4.32% and 5.51%
- Noradrenaline Release, % control [2]: 90.859% and 69.384%
- Noradrenaline Release, mean [2]: 6.29% and 4.97%

Structure (SMILES): C[C@@H]1NC(=O)[C@@H]2CSSC[C@H](NC(=O)CN)C(=O)N[C@@H](CC=CC[C@@H](C(N)=O)NC(=O)[C@H](CCCNC(=N)N)NC(=O)[C@H](Cc3cc4ccccc4[nH]3)NC1=O)C(=O)N[C@@H](CO)C(=O)N[C@@H](CC(=O)O)C(=O)N1CCCC1C(=O)N[C@@H](CCCNC(=N)N)C(=O)N2 (stereo partly drawn) [compound 119, [2,8]-Cystino-[3,12]-Dicarba Conotoxin ImI: NH2-Gly-Cys-c [Hag-Ser-Asp-Pro-Arg-Cys-Ala-Trp-Arg-Hag]-NH2] (H-GC[AllylGly]SD[ξP]RCA[Ala(indol-2-yl)]R[AllylGly]-NH2; disulfide 2-8; staple 3-12)
- Adrenaline Release, 1st-4th (individual wells) [2]: 3.31% and 3.67% and 4.14% and 3.98% and 2.32% and 2.95% and 2.76% and 3.02%
- Adrenaline Release, % control [2]: 83.420% and 58.888%
- Adrenaline Release, mean [2]: 3.77% and 2.76%
- Noradrenaline Release, 1st-4th (individual wells) [2]: 4.89% and 5.75% and 5.73% (2×) and 3.22% and 4.58% and 3.99% and 4.81%
- Noradrenaline Release, % control [2]: 78.400% and 55.971%
- Noradrenaline Release, % inhibition [2]: 21.600%
- Noradrenaline Release, mean [2]: 5.52% and 4.15%
- noradrenaline released, basal release (0.72%) subtracted [2]: 3.43%
